Experimental data taken from US7534913B2, “Crystalline form of nateglinide” (Teva Pharmaceutica Industries Ltd., priority 2002, dated 2009).
One block for each molecule: values may come before it.

How the values were obtained:
[1] = by DSC, according to U.S. Pat. No. 5,463,116; cited from earlier work
[2] = Thermal stability: transformation of crystalline forms on drying or heating, form by XRPD; assay type: physicochemical; conditions: for form obtained upon drying / heating: generally about 40° C. to about 80° C.
Description: The various crystalline forms are related to each other in that drying of one form may result in a transformation to another form, namely nateglinide Forms A, B, D, E, F, G, H, I, J, K, L, M, N, Q, S, T, V, Z, α, β, δ,γ, ε, θ and Ω. The drying is carried out by heating a sample under ambient or reduced pressure. Generally, a preferred temperature is from about 40° C. to about 80° C., more preferably under reduced pressure. […] The term “stable” as used herein refers to a polymorphic change of less than about 5% by weight, more preferably less than about 2%, particularly for Form δ.
Form γ may also be prepared by heating Form J containing seeds of Form γ under similar conditions.
• X-Ray diffraction was performed on X-Ray powder diffractometer, Scintag®, variable goniometer, Cu-tube, solid state detector. Sample holder: A round standard aluminum sample holder with round zero background quartz plate. • The sample was put on the sample holder and immediately analyzed as is. Scanning parameters: Range: 2-40 deg 2θ, Continuos Scan, Rate: 3 deg./min. DSC: • DSC821^e Mettler Toledo®, Sample weight: 3-5 mg, Heating rate: 10° C./min, Number of holes in the crucible: 3 TGA: • Mettler TG50®, Sample weight: 7-15 mg, Heating rate: 10° C./min FTIR: • Perkin-Elmer®, Spectrum One FTIR spectrometer, Range: 4000-400 cm-1, no. of scans: 16, resolution: 4.0 cm-1, DRIFT technique.
Nateglinide Form delta (10 grams), with about 3% heptane (wt/wt), was dried in a fluidized bed drier for 4 hours at 60° C.
Sample of nateglinide form U (˜1 g) was introduced into a 6-gram vial and heated over 8.5 h in a 100° C. oil bath. The vial were extracted from the bath.
Sample of nateglinide form U (˜0.5 g) was heated to 120° C. for 1 h in an atmospheric pressure.
Sample of nateglinide form δ (˜0.5 g) was heated to 120° C. for 1 h in an atmospheric pressure.
The product of example 11 was dried at 50° C. in a vacuum oven overnight, and analyzed by XRD.
Nateglinide (40 grams) Form delta (1.5% heptane) was dried in a stirred reactor (7-10 rpm) under 60 mmHg vacuum and at 60° C.

[3] = heating under ambient or reduced pressure

form obtained upon drying / heating [2, 3]: Form B
Structure (SMILES): CC(C)[C@H]1CC[C@H](C(=O)N[C@H](Cc2ccccc2)C(=O)O)CC1 [acetonitrile solvate of Form Epsilon, nateglinide]

polymorph after drying in a stirred reactor ([2]; 60 mmHg vacuum, 60° C., 6 hours, 7-10 rpm, starting with 1.5% heptane): remained delta form
polymorphic form after drying in a fluidized bed drier ([2]; 4 hours at 60° C., starting with about 3% heptane (wt/wt)): delta
Structure (SMILES): CC(C)[C@H]1CC[C@H](C(=O)N[C@H](Cc2ccccc2)C(=O)O)CC1 [delta]

form obtained upon drying / heating [2, 3]: Forms H or P
Structure (SMILES): CC(C)[C@H]1CC[C@H](C(=O)N[C@H](Cc2ccccc2)C(=O)O)CC1 [nitromethane solvates of Form Epsilon, nateglinide]

thermal stability (conversion to another form upon heating) [2, 3]: thermally stable
Structure (SMILES): CC(C)[C@H]1CC[C@H](C(=O)N[C@H](Cc2ccccc2)C(=O)O)CC1 [sigma]

The next lines start with the molecule.

Structure (SMILES): CC(C)[C@H]1CC[C@H](C(=O)N[C@H](Cc2ccccc2)C(=O)O)CC1 [Form B, nateglinide]
stability of crystals during grinding [1]: unstable and susceptible to change during grinding

Structure (SMILES): CC(C)[C@H]1CC[C@H](C(=O)N[C@H](Cc2ccccc2)C(=O)O)CC1 [Form Ω, nateglinide]
form by XRD after drying in a vacuum oven ([2]; wet sample, 50° C., vacuum oven, overnight): mixture of Form omega and Form Z
